Columns and labels:
[1] = biological target: T1, recombinant human PDE 10A1 (Homo sapiens, UniProt Q9Y233); assay: PDE10 biochemical assay (modified two-step method of Thompson and Appleman, or SPA with [3H]-cGMP); details: PDE10 inhibition
T1 construct: made in house; host or cells: Sf9 insect cells, baculovirus
Procedure: Compounds of this invention may be assayed to determine their IC50 values by a modification of the two-step method of Thompson and Appleman (Biochemistry 10; 311-316; 1971). In short, cAMP is spiked with (^3H)cAMP and incubated with PDE10 and various concentrations of a compound of structure (I). After the appropriate incubation time, the reaction is terminated by heating. The mixture is then subjected to treatment with snake venom phosphatase. The phosphatase hydrolyzes any AMP in the mixture, but leaves unreacted cAMP intact. Thus, by separating cAMP from the mixture and determining its concentration (by radiography), the percent of inhibition can be determined. IO50 values can be calculated by performing the experiment at several concentrations using standard graphical means. A detailed description of the actual technique used for IC50 assays are shown in Example 8.
The phosphodiesterase (PDE) assay was performed using recombinant human PDE 1A3, 2A3, 3 catalytic region, 4 catalytic region, 5 catalytic region, 7A, 8A, 9A2, 10A1 and 11A1 enzymes expressed in a baculoviral system using Sf9 cells. PDE activity was measured using a modification of the two-step method of Thompson and Appleman described above which was adapted for 96 well plate format. […] The final assay volume was 110 μl with assay buffer (10 mM MgCl2; 40 mM Tris.HCl; pH 7.4). Reactions were initiated with enzyme and incubated with (^3H)—substrate and substance for 20 minutes at 30° C. The reaction was terminated by denaturing the enzyme (heating the reaction to 70° C. for 2 minutes). […] The soluble fraction (50 μl) was then added to microscint-20 (200 μl) and counted on a Top Count Plate reader. Radioactivity units were plotted against inhibitor concentration and IC50 values obtained using Graph Pad Prism software.
Alternatively, phosphodiesterase activity was measured by scintillation proximity assay (SPA) with [^3H]-cGMP as substrate. […] Inhibition was evaluated at 8 concentrations in duplicate. […] The mixture was shaken, allowed to settle for 3 hours, and counted in a Wallac plate counter. […]

C57BL/6 male mice [2] = assay: PCP-induced hyperactivity; assay type: in vivo; details: PCP 5 mg/kg, p<0.001
Procedure: Psychostimulant-induced hyperactivity is measured by injecting animals with PCP or amphetamine and monitoring the animals' activity levels in the VersaMax chambers (Accuscan Instruments, Columbus, Ohio) measuring 40×40 cm. Locomotor activity is detected by photobeam breaks as the animal crosses each beam. The animal is placed in the center of the field and left undisturbed for a period of time (20 min to 2 hr) to measure its spontaneous activity in a novel environment. Measurements used to assess locomotor activity include: horizontal activity, total distance traveled, vertical activity (rearing events—animal raises up on hindlimbs), rotation, stereotypy, and distance traveled in the center compared to total distance traveled (center:total distance ratio). Psychostimulants, including dopamine agonist amphetamine and NMDA antagonist PCP, induce psychosis-like conditions manifested as hyperactivity and increased stereotypic behavior. Known antipsychotics are able to reverse psychostimulant-induced hyperactivity and increased stereotypy.

C57BL/6 male mice [3] = assay: Conditioned avoidance response (CAR); assay type: in vivo
Source text: Conditioned avoidance response (CAR) is a behavioral test to evaluate antipsychotic effect of a test compound. It utilizes a shuttle box (Med Associates, St. Albans, Vt.) with two equal chambers separated by a retractable door. Each chamber is fitted with metal grid floor that is capable of delivering electric shocks independently. A computer program is used to implement the testing paradigm as well as record the animal's movement between the two chambers through infrared beam sensors. The testing paradigm is as the follows. A mouse is placed into one chamber. A light (conditioned stimulus, CS) comes on. Five seconds later, mild electric shocks (0.4 mA) (unconditioned stimulus, US) are delivered to the chamber where the mouse is located (as detected by infrared beams) until the mouse escapes to the adjacent chamber or until 10 sec has elapsed. The US and CS always co-terminate. With randomized inter-trial intervals averaging 15 sec, 30 such CS-US pairing trials are given to each mouse each day. For each trial, an escape response is registered if the mouse crosses to the other chamber after being shocked (i.e., during the 10-sec US period), and an avoidance response is registered if the mouse crosses to the other chamber during the first 5-sec CS only period. The animals are trained in such paradigm for 15-20 days, during which the average percentage of avoidance responses will improve to 60-80%. […] These trained animals are then used for compound testing using the same paradigm.
C57BL/6 male mice were trained in the CAR paradigm to predict and avoid the noxious stimulus, reaching a plateau of approximately 20-25 avoidance responses per 30 trials (“training plateau”) each day. The mice were then injected with compound or vehicle via i.p., and 20 minutes later they were tested for 30 trials in the CAR paradigm. Vehicle treatment and compound treatment were given to the same animals on alternating days, and the effect of compound in reducing avoidance response was analyzed through within-subject comparison (paired t-test).

C57BL/6 male mice [4] = assay: Amphetamine-induced hyperactivity; assay type: in vivo; details: 50 mg/kg i.p., amphetamine 5 mg/kg, vs vehicle+amph control, p<0.01
C57BL/6 male mice [5] = details: 50 mg/kg i.p., 30 min after injection, vs vehicle control
C57BL/6 male mice [6] = assay: Novel object recognition test (PCP-disrupted); assay type: in vivo; details: 10 mg/kg i.p. with PCP 5 mg/kg, tested 24 h later, p<0.01 vs PCP-treated group
Procedure: The antipsychotic effect of a test compound may also be evaluated by a novel object recognition test. In a novel object recognition test, mice are housed singly for 1-2 days and then injected with vehicle, PCP, or PCP plus the test compound. Twenty minutes after injection, the mice are presented with and allowed to explore two identical objects for 30 minutes. At the end of the exploration period the objects are removed. Twenty-four hours later each mouse is presented with a pair of objects, one familiar and one novel. After a variable delay, the mice begin to explore the objects. The time exploring each object is measured for 4 minutes starting from the first approach to either object. The fraction of total exploration time spent studying the novel object is recorded as a measure of novelty recognition.
At the end of the exploration period, the objects were removed. Twenty-four hours later, each mouse was presented with a pair of objects, one familiar and one novel, and the time exploring each object was measured for 4 minutes starting from the first approach to either object.

PDE10 = details: Soderling and Beavo 2000, read-out: IC50 (50% inhibitory concentration); cited from earlier work
[7] = 50 mg/kg i.p., vs vehicle+PCP control
[8] = 0.2 mg/kg i.p., vs vehicle+PCP control

T1 sequence (Q9Y233 1-779 isoform Q9Y233-1): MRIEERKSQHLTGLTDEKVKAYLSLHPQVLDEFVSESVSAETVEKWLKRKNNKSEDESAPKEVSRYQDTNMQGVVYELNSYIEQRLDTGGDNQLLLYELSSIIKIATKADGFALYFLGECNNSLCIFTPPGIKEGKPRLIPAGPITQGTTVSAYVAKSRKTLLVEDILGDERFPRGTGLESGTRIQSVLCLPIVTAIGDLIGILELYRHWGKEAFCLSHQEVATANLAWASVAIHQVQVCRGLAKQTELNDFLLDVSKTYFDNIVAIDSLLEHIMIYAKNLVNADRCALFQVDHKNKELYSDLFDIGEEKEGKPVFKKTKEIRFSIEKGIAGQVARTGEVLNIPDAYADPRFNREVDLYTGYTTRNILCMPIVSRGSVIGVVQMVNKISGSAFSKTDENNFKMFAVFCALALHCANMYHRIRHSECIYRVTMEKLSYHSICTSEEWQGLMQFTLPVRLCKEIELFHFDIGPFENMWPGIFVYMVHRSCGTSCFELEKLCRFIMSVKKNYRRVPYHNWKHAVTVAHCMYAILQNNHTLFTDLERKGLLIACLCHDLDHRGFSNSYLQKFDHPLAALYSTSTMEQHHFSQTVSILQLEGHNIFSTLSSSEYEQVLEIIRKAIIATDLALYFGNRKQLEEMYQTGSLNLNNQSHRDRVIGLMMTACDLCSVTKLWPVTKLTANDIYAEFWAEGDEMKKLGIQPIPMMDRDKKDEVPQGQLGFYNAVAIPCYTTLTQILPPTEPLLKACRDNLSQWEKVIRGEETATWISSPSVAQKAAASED

Structure (SMILES): COc1cc(/C=N/NC(=O)CC2Sc3ccccc3NC2=O)cc(OC)c1OC (stereo not drawn) [Compound 1-1, (E)-2-(3-oxo-3,4-dihydro-2H-benzo[B][1,4]thiazin-2-yl)-N′-(3,4,5-trimethoxybenzylidene)acetohydrazide]
- IC50 [1]: ≤ 1000 nM

Structure (SMILES): CCOc1ccc(/C=N/NC(=O)CSc2nc3ccccc3n2Cc2ccccc2)cc1OC [Compound 4-1, (E)-2-(1-benzyl-1H-benzo[d]imidazol-2-ylthio)-N′-(4-ethoxy-3-methoxybenzylidene)acetohydrazide]
- IC50 [1]: ≤ 1000 nM

Structure (SMILES): COc1ccc(/C=N/NC(=O)CSc2cc(C)nc3ccccc23)cc1OC [Compound 5-1, (E)-N′-(3,4-dimethoxybenzylidene)-2-(2-methylquinolin-4-ylthio)acetohydrazide]
- IC50 [1]: ≤ 1000 nM
- hyperactivity induced by PCP (C57BL/6 male mice [2]; [7]): completely abolishes
- stereotypy induced by PCP (C57BL/6 male mice [2]; [7]): completely abolishes
- number of avoidance response (C57BL/6 male mice [3]; 30 mg/kg i.p., tested 20 min later, 30 trials, p<0.001): significantly reduces
- hyperactivity induced by amphetamine (C57BL/6 male mice [4]): partially but significantly reduce
- stereotypy induced by amphetamine (C57BL/6 male mice [4]): partially but significantly reduce
- startle response (C57BL/6 male mice [5]): does not affect
- PPI at 3 different prepulse levels (C57BL/6 male mice [5]; p<0.05, p<0.01): significantly increases

Structure (SMILES): COc1cc(/C=N/NC(=O)CSc2cc(C)nc3ccccc23)cc(OC)c1O [Compound 5-110]
- hyperactivity induced by PCP (C57BL/6 male mice [2]; 30 mg/kg): significantly reduces
- stereotypy induced by PCP (C57BL/6 male mice [2]; 30 mg/kg): significantly reduces
- number of avoidance response (C57BL/6 male mice [3]; 10 mg/kg, procedure as in Example 12, p<0.01): significantly reduces

Structure (SMILES): COc1ccc2nc(C)cc(SCC(=O)NN=Cc3cc(OC)c(OC)c(OC)c3)c2c1 [Compound 5-184]
- novel object recognition performance (C57BL/6 male mice [6]): able to restore

Structure (SMILES): CC(C)Cn1c(=O)n(C)c(=O)c2[nH]cnc21 [IBMX]
- IC50 (PDE10): 2600 nM

Structure (SMILES): O=C(CCCN1CCC(O)(c2ccc(Cl)cc2)CC1)c1ccc(F)cc1 [haloperidol, reference compound]
- hyperactivity induced by PCP (C57BL/6 male mice [2]; [8]): significantly reduce
- stereotypy induced by PCP (C57BL/6 male mice [2]; [8]): significantly reduce
- number of avoidance response (C57BL/6 male mice [3]; 0.15 mg/kg i.p., tested 20 min later, 30 trials, p<0.001): significantly reduces

Reference: patent US8278327B2, “PDE10 inhibitors and related compositions and methods” (Omeros Corporation, priority 2006, dated 2012)
